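48-hour exposure; five concentrations; linearly interpolated endpoints. TGI marks complete inhibition of growth.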 Where a SMILES comes first, the peptide text is derived from it. [ ]: non-standard residue; d: D form. The star is where a group is joined. ξ: configuration not given here. X28 = COC1=CC(=O)N(C(=O)[C@@H](O*)C(C)C)[C@H]1Cc1ccccc1; X37 = O=C(OCc1ccccc1)[C@@H]1CCC[C@H]1N*; Fmoc = O=C(OCC1c2ccccc2-c2ccccc21)*; ξW = NC(Cc1c[nH]c2ccccc12)C(=O)O; NMeL = CN[C@@H](CC(C)C)C(=O)O; ξF = NC(Cc1ccccc1)C(=O)O; Hexanoyl = CCCCCC(=O)*; Boc = CC(C)(C)OC(=O)*; ξK = NCCCCC(N)C(=O)O; ξT = CC(O)C(N)C(=O)O; tBu = CC(C)(C)*
Experiments:
Assay in all cases: growth of human tumour cells (NCI), 48 h
DU-145 prostate = test system: DU-145 prostate
HOP-92 NSCLC = test system: HOP-92 NSCLC
M14 melanoma = test system: M14 melanoma
NCI-H23 lung = test system: NCI-H23 lung
NCI-H460 lung = test system: NCI-H460 lung
RPMI-8226 leukemia = test system: RPMI-8226 leukemia
SF-295 CNS = test system: SF-295 CNS
SK-MEL-2 melanoma = test system: SK-MEL-2 melanoma
SW-620 colon = test system: SW-620 colon
UACC-257 melanoma = test system: UACC-257 melanoma
UACC-62 melanoma = test system: UACC-62 melanoma

| Compound | TGI (DU-145 prostate) [µM] | TGI (HOP-92 NSCLC) [µM] | TGI (M14 melanoma) [µM] | TGI (NCI-H23 lung) [µM] | TGI (NCI-H460 lung) [µM] | TGI (RPMI-8226 leukemia) [µM] | TGI (SF-295 CNS) [µM] | TGI (SK-MEL-2 melanoma) [µM] | TGI (SW-620 colon) [µM] | TGI (UACC-257 melanoma) [µM] | TGI (UACC-62 melanoma) [µM] |
| --- | --- | --- | --- | --- | --- | --- | --- | --- | --- | --- | --- |
| CCOC(=O)C1(C(=O)OCC)C[C@H]2CON=C2[C@@H]1c1ccc(C(F)(F)F)cc1 | > 100 | > 100 | > 100 | > 100 | > 100 | > 100 | > 100 | > 100 | > 100 | > 100 | > 100 |
| O=[N+]([O-])c1ccccc1S(=O)(=O)N1CCCc2cc(Cl)ccc21 | > 100 | > 100 | > 100 | > 100 | > 100 | > 100 | > 100 | > 100 | > 100 | > 96.1 | > 100 |
| c1ccc(COc2nc3ccc(C45CC6CC(CC(C6)C4)C5)cc3[nH]2)cc1 | > 100 | 49.8 | 98.4 | > 56.6 | > 71.3 | 30.9 | > 100 | 52.6 | > 100 | > 26.4 | > 100 |
| CCCCCC(=O)N[C@H](C(=O)N[C@H](C(=O)N(C)[C@@H](CC(C)C)C(=O)N1CCC[C@H]1C(=O)N1CCC[C@H]1C(=O)O[C@H](C(=O)N1C(=O)C=C(OC)[C@@H]1Cc1ccccc1)C(C)C)C(C)C)C(C)C (Hexanoyl-VV[NMeL]PP-X28) | > 100 | > 100 | > 48.1 | > 100 | > 100 | > 100 | > 100 | > 100 | > 100 | > 100 | > 100 |
| CC1(c2cccc(C3CCC4(C=CC3=O)OCCO4)c2)OCCO1 (configuration not stated) | 31.8 | 17.8 | 20.1 | 24 | 30.6 | 28.9 | > 56.7 | 27.4 | 8.07 | 21.5 | 18.1 |
| C=C(C)C1CC2=C(C(=O)OC)C=C(O2)C(C(=C)C)[C@@H]2OC(=O)/C(=C\C1O)[C@H]2N(C)C (some centres not stated) | 24.8 | 20.2 | 29.7 | 28.8 | 31.4 | 14.9 | 32 | 26.7 | 30.3 | 37.1 | 28.3 |
| CC(=O)C1=CC=C/C1=N\Nc1ccccc1 | 28.2 | 27.3 | 22.7 | 26.6 | 38.7 | 7.75 | 28.2 | 27.7 | 15.6 | 33.5 | 28.7 |
| CC(C)(C)[C@@H]1NC(=O)CN1C(=O)OCc1ccccc1 | > 100 | > 100 | > 100 | > 100 | > 100 | > 100 | > 100 | > 100 | > 100 | > 100 | > 100 |
| COc1ccc(N(C(=O)OC(C)(C)C)[C@@H]2C(C)=C[C@H]([S@@](=O)c3ccc(C)cc3)[C@@H]3C(=O)N(C)C(=O)[C@@H]32)cc1 | 81.8 | 61.5 | > 100 | 45.7 | > 100 | 44.3 | 35.9 | 39.3 | 45.5 | 43.8 | 48.4 |
| CC(OC(C)(C)C)C(NC(=O)C(CCCCNC(=O)OC(C)(C)C)NC(=O)C(Cc1c[nH]c2ccccc12)NC(=O)C(Cc1ccccc1)NC(=O)OCC1c2ccccc2-c2ccccc21)C(=O)NC(Cc1ccccc1)C(=O)N[C@@H]1CCC[C@H]1C(=O)OCc1ccccc1 (some centres not stated) (Fmoc-[ξF][ξW][ξK](Boc)[ξT](tBu)[ξF]-X37) | > 100 | > 100 | > 100 | > 100 | > 100 | > 100 | > 100 | > 100 | > 100 | > 100 | > 100 |
| COc1ccc2cc(C(=O)NCCc3ccccc3)ccc2c1OC | > 100 | > 100 | > 100 | > 100 | > 100 | > 100 | > 100 | > 100 | > 100 | > 100 | > 100 |
| COc1cc(O)c(C(=O)/C=C/c2ccc(O)cc2)cc1Oc1ccc(C(=O)/C=C/c2ccc(O)cc2)c(O)c1 | 5.78 | 24.9 | 12.7 | 8.88 | 12.1 | 6.49 | 10.4 | 14.7 | 11 | 21.7 | 4.52 |
| O=C1/C(=C/c2ccc(O)cc2)CCC1CNc1ccc(Cl)cc1 (configuration not stated) | 26.2 | 28.4 | 3.57 | 24.3 | 23 | 10.8 | 16.7 | 28.7 | 3.03 | 11.7 | 5.86 |
| CCCCCCc1cc(C=O)sc1-c1ccc(-c2sc(-c3ccc(-c4ccc(-c5cc(CCCCCC)c(-c6ccc(-c7sc(C=O)cc7CCCCCC)s6)s5)s4)s3)cc2CCCCCC)s1 | > 100 | > 100 | > 100 | > 100 | > 100 | > 100 | > 100 | > 100 | > 100 | > 100 | > 100 |
| CCOC(=O)Nc1ccc(S(=O)(=O)Nc2ccc(Br)cc2)cc1 | > 100 | > 100 | > 100 | > 100 | 72 | > 100 | 97.8 | > 100 | > 100 | > 100 | > 100 |
| CCC1OC2C(CC=C(C)C)=C3OC(C)(O)C(C)(CC)C(O)C3=C3OC(=O)C=C1C32 (configuration not stated) | > 100 | 54.9 | > 100 | 57.7 | 70.5 | > 100 | > 100 | 84.5 | > 100 | > 100 | > 100 |
| NC12c3c4cccc3Oc3cccc(c31)Oc1cccc(c12)O4 | > 50 | > 50 | > 50 | > 50 | > 50 | > 50 | > 50 | > 50 | > 50 | > 50 | > 50 |
| COc1ccc2c(c1)CCC(CN1CCN(CCOC(c3ccc(F)cc3)c3ccc(F)cc3)CC1)=C2 | 49.2 | 42 | 27.4 | 38.2 | 34.2 | 36.9 | 87.2 | 33.3 | > 100 | 28.1 | 49 |
| COc1ccc2c(c1)CC[C@@H]1C2CC[C@]2(C)OC(=O)CCC12 (some centres not stated) | > 100 | 40.6 | 36 | 38.4 | > 100 | > 100 | 46.1 | 66.5 | 24.3 | 32.1 | > 100 |
| c1ccc(/C(=N/Nc2cnccn2)c2ncccn2)cc1 | > 100 | > 100 | > 100 | > 100 | > 100 | > 100 | > 100 | > 100 | > 100 | > 100 | > 100 |
| Nc1nc(Cl)cc(NCC2(CO)CC(CCCCc3ccccc3)C2)n1 (configuration not stated) | > 100 | > 100 | > 100 | > 100 | > 100 | 86.2 | > 100 | > 100 | > 100 | > 100 | > 100 |
| N=C(/C=C/c1ccc(-c2cn3cc(/C=C/C(=N)N4CCOCC4)ccc3n2)cc1)N1CCOCC1 | > 100 | > 100 | > 100 | > 100 | > 100 | > 100 | > 100 | > 100 | > 100 | > 100 | > 100 |
| CC(C)=NN/C(=N\S(=O)(=O)c1cc(Cl)c(Oc2ccc([N+](=O)[O-])cc2Cl)c(Cl)c1)Nc1ccc(Cl)cc1 | > 100 | > 100 | > 100 | > 100 | > 100 | > 100 | > 100 | > 100 | > 100 | > 100 | > 100 |
| CCN(CC)P1(=S)Oc2ccc3ccccc3c2-c2c(ccc3ccccc23)O1 | > 100 | > 100 | > 100 | > 100 | > 100 | > 100 | > 100 | > 100 | > 100 | > 100 | > 100 |
| NS(=O)(=O)c1ccc(CNC(=S)NC(=O)Nc2ccc(Cl)c(Cl)c2)cc1 | > 100 | 52.9 | 35.8 | 30.2 | 94 | 41.6 | 33.2 | 31.4 | 44.7 | > 100 | 29.3 |
| CC(=O)c1ccc2c(c1)CC1(C2)Cc2cc3c(cc2C1)C(=O)CC3 (configuration not stated) | 25.8 | 32.8 | 17.6 | 14.7 | 12.2 | 3.61 | 13 | 5.75 | > 100 | 29.1 | 28.7 |
| CCOC(=O)/C(O)=C(\C=N\C(=S)Nc1ccc(Cl)c(Cl)c1)C(=O)OCC | > 100 | > 100 | > 100 | > 100 | > 100 | > 100 | > 100 | > 100 | > 100 | > 100 | > 100 |

Reference: PubChem BioAssay (NCI)
